≈ marks a conversion by molar mass, not a printed value.
What was measured:
[1] = Kinetic solubility in aqueous media (nephelometry); type: physicochemical; conditions: phosphate citrate buffer, pH 7.4, aqueous buffer, kinetic from dmso stock, phosphate citrate buffer pH 7.4, turbidity of three dilution steps; read-out: Solubility Score
Description: Kinetic solubility in aqueous media measures the ability of a compound to stay in aqueous solution upon dilution (see example C.3).
DMSO-stock solutions are diluted with a single aqueous buffer solvent in 3 consecutive steps. For every dilution turbidity is measured with a nephelometer.
In the first dilution step, 10 μl of a concentrated stock-solution of the active compound, solubilized in DMSO (5 mM), was added to 100 μl phosphate citrate buffer pH 7.4 and mixed. In the second dilution step, an aliquot (20 μl) of the first dilution step was further dispensed in 100 μl phosphate citrate buffer pH 7.4 and mixed. Finally, in the third dilution step, a sample (20 μl) of the second dilution step was further diluted in 100 μl phosphate citrate buffer pH 7.4 and mixed. All dilutions were performed in 96-well plates. Immediately after the last dilution step the turbidity of the three consecutive dilution steps were measured with a nephelometer. Dilution was done in triplicate for each compound to exclude occasional errors. Based on the turbidity measurements a ranking is performed into 3 classes. Compounds with high solubility obtained a score of 3 and for this compounds the first dilution is clear. Compounds with medium solubility obtained a score of 2. For these compounds the first dilution is unclear and the second dilution is clear. […] The solubility of 112 compounds was measured.

[2] = target: histone deacetylase (HeLa nuclear extracts); assay: In vitro assay for inhibition of histone deacetylase; type: biochemical; conditions: [3H]acetylated histone H4 peptide substrate
Description: The in vitro assay for inhibition of histone deacetylase (see example C.1) measures the inhibition of HDAC enzymatic activity obtained with the compounds of formula (I).
HeLa nuclear extracts (supplier: Biomol) were incubated at 60 μg/ml with 2×10^−8 M of radiolabeled peptide substrate. As a substrate for measuring HDAC activity a synthetic peptide, i.e. the amino acids 14–21 of histone H4, was used. The substrate is biotinylated at the NH2-terminal part with a 6-aminohexanoic acid spacer, and is protected at the COOH-terminal part by an amide group and specifically [^3H]acetylated at lysine 16. The substrate, biotin-(6-aminohexanoic)Gly-Ala-([^3H]-acetyl-Lys-Arg-His-Arg-Lys-Val-NH2), was added in a buffer containing 25 mM Hepes, 1 M sucrose, 0.1 mg/ml BSA and 0.01% Triton X-100 at pH 7.4. After 30 min the deacetylation reaction was terminated by the addition of HCl and acetic acid. (final concentration 0.035 mM and 3.8 mM respectively). After stopping the reaction, the free ^3H-acetate was extracted with ethylacetate. After mixing and centrifugation, the radioactivity in an aliquot of the upper (organic) phase was counted in a β-counter.
For each experiment, controls (containing HeLa nuclear extract and DMSO without compound), a blank incubation (containing DMSO but no HeLa nuclear extract or compound) and samples (containing compound dissolved in DMSO and HeLa nuclear extract) were run in parallel. In first instance, compounds were tested at a concentration of 10^−5M. […] In each test the blank value was substracted from both the control and the sample values. The control sample represented 100% of substrate deactylation. For each sample the radioactivity was expressed as a percentage of the mean value of the controls. […] Herein the effects of test compounds are expressed as pIC50 (the negative log value of the IC50-value).

[3] = system: A2780 ovarian carcinoma cells; assay: Antiproliferative activity on A2780 cells (MTT); type: cell-based, human; conditions: Homo sapiens, A2780, 96 h, four days of incubation, read-out: Cellular activity pIC50 (converted)
Description: Cellular activity of the compounds of formula (I) was determined on A2780 tumour cells using a colorimetric assay for cell toxicity or survival (Mosmann Tim, Journal of Immunological Methods 65: 55–63, 1983)(see example C.2).
All compounds tested were dissolved in DMSO and further dilutions were made in culture medium. Final DMSO concentrations never exceeded 0.1% (v/v) in cell proliferation assays. Controls contained A2780 cells and DMSO without compound and blanks contained DMSO but no cells. MTT was dissolved at 5 mg/ml in PBS. A glycine buffer comprised of 0.1 M glycine and 0.1 M NaCl buffered to pH 10.5 with NaOH (1 N) was prepared (all reagents were from Merck).
The human A2780 ovarian carcinoma cells (a kind gift from Dr. T. C. Hamilton [Fox Chase Cancer Centre, Pennsylvania, USA]) were cultured in RPMI 1640 medium supplemented with 2 mM L-glutamine, 50 μg/ml gentamicin and 10% fetal calf serum. Cells were routinely kept as monolayer cultures at 37° C. in a humidified 5% CO2 atmosphere. Cells were passaged once a week using a trypsin/EDTA solution at a split ratio of 1:40. All media and supplements were obtained from Life Technologies. Cells were free of mycoplasma contamination as determined using the Gen-Probe Mycoplasma Tissue Culture kit (supplier: BioMérieux).
Cells were seeded in NUNC™ 96-well culture plates (Supplier: Life Technologies) and allowed to adhere to the plastic overnight. Densities used for plating were 1500 cells per well in a total volume of 200 μl medium. After cell adhesion to the plates, medium was changed and drugs and/or solvents were added to a final volume of 200 μl. Following four days of incubation, medium was replaced by 200 μl fresh medium and cell density and viability was assessed using an MTT-based assay. To each well, 25 μl MTT solution was added and the cells were further incubated for 2 hours at 37° C. The medium was then carefully aspirated and the blue MTT-formazan product was solubilized by addition of 25 μl glycine buffer followed by 100 μl of DMSO. […] Within an experiment, the results for each experimental condition are the mean of 3 replicate wells. For initial screening purposes, compounds were tested at a single fixed concentration of 10^−6 M. For active compounds, the experiments were repeated to establish full concentration-response curves. For each experiment, controls (containing no drug) and a blank incubation (containing no cells or drugs) were run in parallel. The blank value was subtracted from all control and sample values. For each sample, the mean value for cell growth (in absorbance units) was expressed as a percentage of the mean value for cell growth of the control. […] Herein the effects of test compounds are expressed as pIC50 (the negative log value of the IC50-value).

solubility [1] [µM]	Enzyme activity pIC50 [2]	IC50 [3] [nM]	Compound
75.8 to 454 (≈ 28.8 to 172 µg/mL)	6.255	2790	O=C(NO)c1ccc(N2CCN(S(=O)(=O)c3cccc(F)c3)CC2)cc1 [Compound 61]
< 75.8	5.409	384	O=C(NO)c1ccc(N2CCN(S(=O)(=O)CCc3cccc4ccccc34)CC2)cc1 [Compound 62]
< 75.8	6.215	1860	CCCc1ccc(S(=O)(=O)N2CCN(c3ccc(C(=O)NO)cc3)CC2)cc1 [Compound 63]
> 454	5.753	8910	Cc1noc(C)c1S(=O)(=O)N1CCN(c2ccc(C(=O)NO)cc2)CC1 [Compound 64]
> 454	5.775	> 10000	Cn1cnc(S(=O)(=O)N2CCN(c3ccc(C(=O)NO)cc3)CC2)c1 [Compound 65]
< 75.8	6.197	1330	O=C(NO)c1ccc(N2CCN(S(=O)(=O)c3ccc(Cl)s3)CC2)cc1 [Compound 66]
< 75.8	5.177	855	Cc1c(C)c(S(=O)(=O)N2CCN(c3ccc(C(=O)NO)cc3)CC2)c(C)c2c1OC(C)(C)C2 [Compound 67]
< 75.8	6.908	1230	O=C(NO)c1ccc(N2CCN(S(=O)(=O)c3ccc(-c4ccccn4)s3)CC2)cc1 [Compound 68]
> 454	5.978	> 10000	O=C(NO)c1ccc(N2CCN(S(=O)(=O)c3cc(S(=O)(=O)c4ccccc4)cs3)CC2)cc1 [Compound 69]
> 454	5.914	4060	O=C(NO)c1ccc(N2CCN(S(=O)(=O)c3cccs3)CC2)cc1 [Compound 70]
> 454	6.449	2470	O=C(NO)c1ccc(N2CCN(S(=O)(=O)c3cccc4cccnc34)CC2)cc1 [Compound 71]
< 75.8	6.346	942	CN(C)c1cccc2c(S(=O)(=O)N3CCN(c4ccc(C(=O)NO)cc4)CC3)cccc12 [Compound 72]
< 75.8	6.212	3960	O=C(NO)c1ccc(N2CCN(S(=O)(=O)Cc3ccccc3)CC2)cc1 [Compound 73]
75.8 to 454 (≈ 32.6 to 195 µg/mL)	5.841	2610	O=C(NO)c1ccc(N2CCN(S(=O)(=O)c3ccccc3C(F)(F)F)CC2)cc1 [Compound 74]
< 75.8	6.227	1360	O=C(NO)c1ccc(N2CCN(S(=O)(=O)c3ccc(Cl)cc3)CC2)cc1 [Compound 76]
75.8 to 454 (≈ 33.4 to 200 µg/mL)	6.306	1250	O=C(NO)c1ccc(N2CCN(S(=O)(=O)c3ccc(Br)cc3)CC2)cc1 [Compound 78]

solubility [1] [µM]	Enzyme activity pIC50 [2]	IC50 [3] [nM]	Compound
< 75.8	6.238	4290	Cc1ccc(S(=O)(=O)N2CCN(c3ccc(C(=O)NO)cc3)CC2)cc1 [Compound 79]
< 75.8	5.961	1230	O=C(NO)c1ccc(N2CCN(S(=O)(=O)c3ccc(Cl)c(Cl)c3)CC2)cc1 [Compound 80]
< 75.8	6.873	1300	O=C(NO)c1ccc(N2CCN(S(=O)(=O)c3cccc4ccccc34)CC2)cc1 [Compound 81]
> 454	5.821	1080	O=C(NO)c1ccc(N2CCN(S(=O)(=O)c3ccc(Oc4ccccc4)cc3)CC2)cc1 [Compound 82]
< 75.8	6.157	1300	O=C(NO)c1ccc(N2CCN(S(=O)(=O)c3cccc(-c4ccccc4)c3)CC2)cc1 [Compound 83]
> 454	6.481	2840	O=C(NO)c1ccc(CN2CCN(S(=O)(=O)c3ccc4ccccc4c3)CC2)cc1 [Compound 88]
> 454	7.467	1110	O=C(NO)c1cnc(N2CCN(S(=O)(=O)c3cccs3)CC2)nc1 [Compound 90]
> 454	7.688	783	O=C(NO)c1cnc(N2CCN(S(=O)(=O)c3ccc4cccnc4c3)CC2)nc1 [Compound 91]
> 454	7.464	455	Cn1nc(-c2ccc(S(=O)(=O)N3CCN(c4ncc(C(=O)NO)cn4)CC3)s2)cc1C(F)(F)F [Compound 93]
75.8 to 454 (≈ 39.2 to 235 µg/mL)	7.497	218	Cn1nc(C(F)(F)F)cc1-c1ccc(S(=O)(=O)N2CCN(c3ncc(C(=O)NO)cn3)CC2)s1 [Compound 94]
> 454	7.363	1100	O=C(NO)c1cnc(N2CCN(S(=O)(=O)c3c(Cl)nc4sccn34)CC2)nc1 [Compound 95]
> 454	7.49	335	COc1ccc(S(=O)(=O)N2CCN(c3ncc(C(=O)NO)cn3)CC2)cc1OC [Compound 96]
75.8 to 454 (≈ 39.7 to 238 µg/mL)	7.054	356	O=C(NO)c1cnc(N2CCN(S(=O)(=O)c3ccc(-c4ccc(OC(F)(F)F)cc4)cc3)CC2)nc1 [Compound 98]
> 454	7.316	242	COc1ccc(-c2ccc(S(=O)(=O)N3CCN(c4ncc(C(=O)NO)cn4)CC3)cc2)c(OC)c1 [Compound 99]
75.8 to 454 (≈ 32.6 to 195 µg/mL)	8.171	57.9	O=C(NO)c1cnc(N2CCN(S(=O)(=O)c3ccc(-c4ccoc4)cc3)CC2)nc1 [Compound 100]
75.8 to 454 (≈ 38.5 to 231 µg/mL)	7.162	353	O=C(NO)c1cnc(N2CCN(S(=O)(=O)c3ccc(-c4cccc(C(F)(F)F)c4)cc3)CC2)nc1 [Compound 102]
